In patent US11089783B2, “2-(het)aryl-substituted fused heterocycle derivatives as pesticides” (Bayer Aktiengesellschaft, priority 2017, dated 2021) one finds Emax data, which are given here for 3 compounds.

Molecules are shown by their SMILES.

What all share (assay type): in vivo
One assay deals with Myzus persicae. Description: Myzus persicae drench test (MYZUPE D), savoy cabbage plants. Conditions: soil, 240 h, 0.16 ppm, 10 dat, read-out: % efficacy. How it is done:
[table] To produce an appropriate active ingredient formulation, 1 part by weight of active ingredient is mixed with the specified amounts of solvent and emulsifier and the concentrate is diluted to the desired concentration with water, it being necessary to take into account the volume of soil into which drenching is effected. It should be ensured that a concentration of 40 ppm of emulsifier in the soil is not exceeded. For production of further test concentrations, the mixture is diluted with water. Savoy cabbage plants (Brassica oleracea) in soil pots, infested by all stages of the green peach aphid (Myzus persicae), are drenched with an active ingredient formulation of the desired concentration. After the desired time, the efficacy in % is determined. 100% means that all the aphids have been killed; 0% means that no aphids have been killed.

Another assay deals with Nilaparvata lugens. Description: Nilaparvata lugens spray test (NILALU). The settings on record: Nilaparvata lugens, 96 h, 4 g/ha, 4 dat, read-out: % efficacy. The method in brief: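 Rice plants (Oryza sativa) sprayed with compound formulated in solvent and water with 1000 ppm emulsifier, ammonium salts/penetrants at 1000 ppm if needed, then infested with brown planthopper larvae. After the set time, efficacy scored as % planthoppers killed (100% all, 0% none).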

The next assay concerns Diabrotica balteata. Description: Diabrotica balteata drench test (DIABBA). Conditions: soil, 192 h, 8 dat, read-out: % efficacy. The method, then: [table] To produce an appropriate active ingredient formulation, 1 part by weight of active ingredient is mixed with the specified amounts of solvent and emulsifier and the concentrate is diluted to the desired concentration with water, it being necessary to take into account the volume of soil into which drenching is effected. It should be ensured that a concentration of 40 ppm of emulsifier in the soil is not exceeded. For production of further test concentrations, the mixture is diluted with water. 5 maize kernels in each case are sown into soil-filled pots (Zea mays) and, the next day, drenched with the active ingredient formulation of the desired concentration. After one day, about 25 L2 larvae of the banded cucumber beetle (Diabrotica balteata) were added. After 8 days, the efficacy in % is determined. 100% means that all 5 plants have germinated and grown; 0% means that no plant has emerged.

The next assay concerns Meloidogyne incognita. Description: Meloidogyne incognita drench test (MELGIN D). Conditions: soil, 504 h, 21 dat, read-out: % efficacy. How it is done: [table] To produce an appropriate active ingredient formulation, 1 part by weight of active ingredient is mixed with the specified amounts of solvent and emulsifier and the concentrate is diluted to the desired concentration with water, it being necessary to take into account the volume of soil into which drenching is effected. It should be ensured that a concentration of 20 ppm of emulsifier in the soil is not exceeded. For production of further test concentrations, the mixture is diluted with water. Pots filled with soil (loamy sand) are drenched with the active ingredient solution. An egg/larvae suspension of the southern root-knot nematode (Meloidogyne incognita) is added, and lettuce seeds are scattered over the soil surface and covered with quartz sand. The lettuce seeds germinate and the seedlings develop. The root-knots develop on the roots. After the desired time, the nematicidal effect is determined with reference to the root-knot formation in %. 100% means that no root-knots were found; 0% means that the number of root-knots on the treated plants corresponds to that on the untreated control.

As to `CCS(=O)(=O)c1ccc(N(C)C(=O)NC)nc1-c1nc2cc(C(F)(F)C(F)(F)F)nnc2n1C` [Example I-09], the Emax at 0.16 ppm with Myzus persicae is 99%.
Regarding `CCS(=O)(=O)c1ccc(NC(=O)N(C)C)nc1-c1nc2cc(C(F)(F)C(F)(F)F)nnc2n1C` [Example I-10], in the assay on Nilaparvata lugens, the Emax at 4 g/ha was determined as 90%.
`CCS(=O)(=O)c1ccc(NC(=O)NC)nc1-c1nc2cc(C(F)(F)C(F)(F)F)nnc2n1C` [Example I-08, 1-{5-(ethylsulfonyl)-6-[7-methyl-3-(pentafluoroethyl)-7H-imidazo[4,5-c]pyridazin-6-yl]pyridin-2-yl}-3-methylurea]: the Emax at 20 ppm in the assay with Diabrotica balteata was 100%. In the assay with Meloidogyne incognita (1 ppm), the Emax at 1 ppm was determined as 100%. The Emax at 2 ppm with Meloidogyne incognita (2 ppm) turned out to be 100%.
